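Briefly, cells in 96-well plates were exposed to five compound concentrations for 48 h, and endpoints were estimated by linear interpolation. Abbreviation: GI50, concentration required for 50% inhibition of growth. TGI is the concentration that stops growth completely.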 Some results are limits rather than exact numbers.

Some test systems named below: OVCAR-8 ovarian; IGROV1 ovarian; RPMI-8226 leukemia; RXF 393 renal; A498 renal; HOP-92 NSCLC; UACC-62 melanoma; DU-145 prostate; SNB-19 CNS; LOX IMVI melanoma.
What all share (test): NCI anticancer screen, dose series, 48 h

Take `S=C(Nc1ccccc1)N1CCn2c1nsc2=Nc1ccccc1`: the GI50 in the test with OVCAR-8 ovarian is > 100 µM; in the test on IGROV1 ovarian it was 50.2 µM; in the test with RPMI-8226 leukemia it was 40.9 µM; with RXF 393 renal, > 100 µM; in the test with A498 renal, 77.9 µM; in the test on HOP-92 NSCLC it was 92.7 µM. Besides, the GI50 in the test with UACC-62 melanoma was 45.9 µM; in the test on DU-145 prostate, > 100 µM; in the test with SNB-19 CNS, > 100 µM; with LOX IMVI melanoma, 29.1 µM. Besides, the TGI in the test on OVCAR-8 ovarian, in the test with IGROV1 ovarian, with RPMI-8226 leukemia, in the test with RXF 393 renal, with A498 renal and in the test on HOP-92 NSCLC was > 100 µM in each case. For the same molecule, the TGI in the test with UACC-62 melanoma, with DU-145 prostate, in the test with SNB-19 CNS and in the test with LOX IMVI melanoma was > 100 µM each time.

Turning to `COc1cc(/C=C\c2cc(OC)c(OC)c(OC)c2)cc(NS(=O)(=O)c2cccc(Cl)c2)c1OC`, the GI50 is 0.429 µM in the test with OVCAR-8 ovarian; 0.0887 µM in the test on IGROV1 ovarian; 0.0597 µM in the test with RPMI-8226 leukemia; 0.338 µM in the test with RXF 393 renal; 0.0218 µM in the test on A498 renal; 0.0715 µM in the test with HOP-92 NSCLC. Also, the GI50 is 0.0568 µM with UACC-62 melanoma, 0.0676 µM in the test with DU-145 prostate, 0.214 µM with SNB-19 CNS and 0.0574 µM in the test with LOX IMVI melanoma. For the same molecule, the TGI was > 100 µM in the test on OVCAR-8 ovarian; > 100 µM in the test on IGROV1 ovarian; > 100 µM in the test on RPMI-8226 leukemia; > 100 µM in the test on RXF 393 renal; 0.0798 µM with A498 renal; > 100 µM in the test on HOP-92 NSCLC. Also, the TGI in the test with UACC-62 melanoma, with DU-145 prostate, with SNB-19 CNS and in the test with LOX IMVI melanoma was > 100 µM in each case.

In the case of `COc1cc(CNC(=O)CCSc2nc3ccccc3c(=O)n2Cc2cc(OC)c(OC)c(OC)c2)cc(OC)c1OC`, the GI50 in the test on OVCAR-8 ovarian is 10 µM; in the test with IGROV1 ovarian it was 13.2 µM; in the test on RPMI-8226 leukemia, 4 µM; with RXF 393 renal, 5.31 µM; with A498 renal it was 4.05 µM; in the test on HOP-92 NSCLC, 5.7 µM. Further, the GI50 in the test with UACC-62 melanoma was 2.92 µM; with DU-145 prostate it was 7.27 µM; with SNB-19 CNS, 6 µM; in the test with LOX IMVI melanoma, 7.05 µM. Moreover, the TGI was 50.7 µM with OVCAR-8 ovarian; > 100 µM in the test on IGROV1 ovarian; 67.2 µM with RPMI-8226 leukemia; 26 µM with RXF 393 renal; 21.1 µM in the test on A498 renal; 23.9 µM with HOP-92 NSCLC. Moreover, the TGI was 20.6 µM with UACC-62 melanoma, > 100 µM in the test with DU-145 prostate, > 100 µM in the test with SNB-19 CNS and > 100 µM in the test on LOX IMVI melanoma.

Take `S=c1[nH]nc(SCc2ccccc2Cl)c2[nH]cnc12`: the TGI with OVCAR-8 ovarian, in the test on IGROV1 ovarian, with RPMI-8226 leukemia, in the test on RXF 393 renal, in the test on A498 renal and with HOP-92 NSCLC was > 100 µM throughout. Further, the TGI in the test on UACC-62 melanoma, in the test with DU-145 prostate, in the test with SNB-19 CNS and in the test with LOX IMVI melanoma was > 100 µM in each case.

`Cc1ccc(/C=C2\CN(Cc3cn(CCNc4ccnc5cc(Cl)ccc45)nn3)C/C(=C\c3ccc(C)cc3)C2=O)cc1`: the GI50 is 2.03 µM in the test with OVCAR-8 ovarian; 1.92 µM with IGROV1 ovarian; 1.82 µM in the test with RPMI-8226 leukemia; 1.67 µM in the test with RXF 393 renal; 0.85 µM in the test with A498 renal; 1.45 µM in the test on HOP-92 NSCLC. The GI50 is 1.88 µM in the test on UACC-62 melanoma, 1.76 µM with DU-145 prostate, 1.82 µM in the test with SNB-19 CNS and 1.76 µM in the test on LOX IMVI melanoma. In addition, the TGI with OVCAR-8 ovarian turned out to be 4.85 µM; in the test on IGROV1 ovarian, 3.73 µM; with RPMI-8226 leukemia it was 4.98 µM; in the test on RXF 393 renal, 3.36 µM; in the test with A498 renal it was 2.2 µM; with HOP-92 NSCLC, 3.01 µM. Moreover, the TGI in the test with UACC-62 melanoma is 3.43 µM; in the test on DU-145 prostate it was 3.17 µM; with SNB-19 CNS, 3.43 µM; with LOX IMVI melanoma, 3.36 µM.

On to `CN1N=Nc2c(C(F)(F)F)nn(-c3ccccc3)c2N(C)C1=O`, for which the TGI in the test with OVCAR-8 ovarian, with IGROV1 ovarian, in the test with RPMI-8226 leukemia, with RXF 393 renal, in the test on A498 renal and in the test on HOP-92 NSCLC was > 100 µM in each case. The TGI with UACC-62 melanoma, in the test on DU-145 prostate, in the test on SNB-19 CNS and with LOX IMVI melanoma was > 100 µM each time. In addition, the GI50 in the test with IGROV1 ovarian was > 100 µM; in the test on RPMI-8226 leukemia, > 56 µM; in the test on A498 renal, > 100 µM; with HOP-92 NSCLC, > 100 µM; in the test with UACC-62 melanoma it was > 100 µM; with DU-145 prostate, > 100 µM. Besides, the GI50 in the test with SNB-19 CNS and in the test on LOX IMVI melanoma was > 100 µM each time.

`O=C(O)c1cc2c(c3ccsc13)-c1ccccc1CC2`: the GI50 in the test with OVCAR-8 ovarian was 40.7 µM; in the test on IGROV1 ovarian, 33.9 µM; in the test with RPMI-8226 leukemia it was 43.4 µM; in the test with RXF 393 renal, 36.6 µM; in the test on A498 renal it was 19.2 µM; in the test with HOP-92 NSCLC, 30.3 µM. Besides, the GI50 in the test with UACC-62 melanoma was 33.9 µM; in the test on DU-145 prostate, 44.2 µM; with SNB-19 CNS, 47 µM; in the test on LOX IMVI melanoma it was 40.8 µM. In addition, the TGI was > 100 µM in the test on OVCAR-8 ovarian; > 100 µM in the test on IGROV1 ovarian; > 100 µM in the test with RPMI-8226 leukemia; > 100 µM in the test on RXF 393 renal; 61.8 µM with A498 renal; > 100 µM in the test on HOP-92 NSCLC. The TGI in the test with UACC-62 melanoma, in the test with DU-145 prostate, with SNB-19 CNS and with LOX IMVI melanoma was > 100 µM throughout.

For the molecule `N#C/C(=C\c1cccnc1)c1nc2ccccc2o1`, the GI50 with OVCAR-8 ovarian is > 100 µM; with IGROV1 ovarian it was > 100 µM; in the test on RPMI-8226 leukemia, > 100 µM; in the test with RXF 393 renal, > 100 µM; with A498 renal, 66.4 µM; in the test on HOP-92 NSCLC, 40.8 µM. Further, the GI50 with UACC-62 melanoma, in the test on DU-145 prostate, in the test with SNB-19 CNS and in the test on LOX IMVI melanoma was > 100 µM each time. For the same molecule, the TGI in the test on OVCAR-8 ovarian, in the test on IGROV1 ovarian, in the test on RPMI-8226 leukemia, in the test with RXF 393 renal, in the test with A498 renal and in the test with HOP-92 NSCLC was > 100 µM throughout. For the same molecule, the TGI in the test on UACC-62 melanoma, in the test with DU-145 prostate, with SNB-19 CNS and in the test on LOX IMVI melanoma was > 100 µM each time.

These data come from PubChem BioAssay (NCI).
